Source: ChEMBL document CHEMBL4715686, “Differently fluorescence-labelled dibenzodiazepinone-type muscarinic acetylcholine receptor ligands with high M2R affinity” (RSC Med Chem, 2020)

Assays:
[1] = target: T1, Muscarinic acetylcholine receptor M2 (Homo sapiens, UniProt P08172); experiment: Displacement of [3H]-NMS from muscarinic M2 receptor (unknown origin) expressed in A9 cells by scintillation counting analysis; assay type: cell-based
[2] = target: T2, Muscarinic acetylcholine receptor M4 (Homo sapiens, UniProt P08173); experiment: Displacement of [3H]-NMS from muscarinic M4 receptor (unknown origin) expressed in NG108-15 cells by scintillation counting analysis; assay type: cell-based
T2 sequence (P08173 whole entry): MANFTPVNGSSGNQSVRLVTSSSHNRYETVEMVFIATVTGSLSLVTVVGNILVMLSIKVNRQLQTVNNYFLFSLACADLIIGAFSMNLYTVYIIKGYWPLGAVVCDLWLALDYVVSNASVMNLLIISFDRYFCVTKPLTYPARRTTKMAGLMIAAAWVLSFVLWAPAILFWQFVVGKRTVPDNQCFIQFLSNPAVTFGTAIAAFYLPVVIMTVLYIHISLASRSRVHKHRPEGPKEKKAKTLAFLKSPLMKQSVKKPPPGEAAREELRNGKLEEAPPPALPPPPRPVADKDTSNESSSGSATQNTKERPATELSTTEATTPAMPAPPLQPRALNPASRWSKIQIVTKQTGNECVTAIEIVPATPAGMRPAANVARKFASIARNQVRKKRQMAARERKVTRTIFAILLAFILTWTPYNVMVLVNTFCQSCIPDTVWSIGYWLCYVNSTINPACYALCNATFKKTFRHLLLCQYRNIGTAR

[3] = target: T3, Muscarinic acetylcholine receptor M1 (Homo sapiens, UniProt P11229); experiment: Displacement of [3H]NMS from human recombinant muscarinic receptor M1 expressed in CHO-K9 cell membranes measured after 3 hrs by radioligand competition binding assay; design: species or system Membrane
T3 sequence (P11229 whole entry): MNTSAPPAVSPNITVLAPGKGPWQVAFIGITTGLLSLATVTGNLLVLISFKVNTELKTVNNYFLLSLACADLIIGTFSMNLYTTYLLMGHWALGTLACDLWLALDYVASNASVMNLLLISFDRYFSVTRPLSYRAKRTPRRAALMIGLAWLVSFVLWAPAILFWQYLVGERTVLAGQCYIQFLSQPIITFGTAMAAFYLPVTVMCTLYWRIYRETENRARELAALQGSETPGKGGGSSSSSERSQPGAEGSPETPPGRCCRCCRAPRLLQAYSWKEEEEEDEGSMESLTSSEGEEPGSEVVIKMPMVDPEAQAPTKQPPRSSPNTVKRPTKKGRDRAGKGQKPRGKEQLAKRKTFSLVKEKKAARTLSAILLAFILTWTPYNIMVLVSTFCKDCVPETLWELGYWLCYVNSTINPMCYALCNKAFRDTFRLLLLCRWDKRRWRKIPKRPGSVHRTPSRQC

[4] = target: T1, Muscarinic acetylcholine receptor M2; experiment: Displacement of [3H]NMS from human recombinant muscarinic receptor M2 expressed in CHO-K9 cell membranes measured after 3 hrs by radioligand competition binding assay; design: species or system Membrane
[5] = target: T4, Muscarinic acetylcholine receptor M2 (Homo sapiens, UniProt P08172); experiment: Binding affinity to human muscarinic M2 receptor expressed in CHO-K9 cells assessed as unspecific binding at Kd incubated in dark at 22 degree C for 2 hrs in presence of atropine by FACSCantoII flow cytometric saturation binding study relative to control; assay type: cell-based
T4 sequence (P08172 whole entry): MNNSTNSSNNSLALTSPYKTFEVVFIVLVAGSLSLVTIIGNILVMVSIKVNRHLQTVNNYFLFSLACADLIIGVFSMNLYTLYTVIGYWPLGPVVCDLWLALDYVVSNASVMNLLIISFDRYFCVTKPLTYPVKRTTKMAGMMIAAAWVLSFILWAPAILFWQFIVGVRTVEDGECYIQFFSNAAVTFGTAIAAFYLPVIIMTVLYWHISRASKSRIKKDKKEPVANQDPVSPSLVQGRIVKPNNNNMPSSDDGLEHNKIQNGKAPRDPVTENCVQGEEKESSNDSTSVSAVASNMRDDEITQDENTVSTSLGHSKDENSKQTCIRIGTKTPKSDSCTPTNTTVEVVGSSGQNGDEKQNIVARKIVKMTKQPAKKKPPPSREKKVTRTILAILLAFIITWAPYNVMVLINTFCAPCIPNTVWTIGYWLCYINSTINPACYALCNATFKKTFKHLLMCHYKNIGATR

[6] = target: Muscarinic acetylcholine receptor M3 (Homo sapiens, UniProt P20309); experiment: Displacement of [3H]NMS from human recombinant muscarinic receptor M3 expressed in CHO-K9 cell membranes measured after 3 hrs by radioligand competition binding assay; design: species or system Membrane
Chain of Muscarinic acetylcholine receptor M3 (P20309 whole entry): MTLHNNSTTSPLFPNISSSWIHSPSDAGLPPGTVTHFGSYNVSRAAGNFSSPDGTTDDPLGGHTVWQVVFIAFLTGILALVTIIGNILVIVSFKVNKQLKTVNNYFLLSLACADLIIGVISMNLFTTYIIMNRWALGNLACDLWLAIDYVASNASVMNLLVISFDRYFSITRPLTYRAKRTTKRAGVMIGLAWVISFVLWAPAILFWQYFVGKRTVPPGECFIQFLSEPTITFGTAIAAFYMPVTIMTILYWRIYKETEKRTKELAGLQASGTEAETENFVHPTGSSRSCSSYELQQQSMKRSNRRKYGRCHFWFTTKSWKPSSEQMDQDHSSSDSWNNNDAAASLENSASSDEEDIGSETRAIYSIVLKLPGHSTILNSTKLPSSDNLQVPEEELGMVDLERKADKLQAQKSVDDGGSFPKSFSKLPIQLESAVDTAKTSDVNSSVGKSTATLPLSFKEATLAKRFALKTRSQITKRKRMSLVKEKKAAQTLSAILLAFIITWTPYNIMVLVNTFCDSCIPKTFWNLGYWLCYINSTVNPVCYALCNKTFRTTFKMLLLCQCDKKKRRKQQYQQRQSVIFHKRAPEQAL

[7] = target: T2, Muscarinic acetylcholine receptor M4; experiment: Displacement of [3H]NMS from human recombinant muscarinic receptor M4 expressed in CHO-K9 cell membranes measured after 3 hrs by radioligand competition binding assay; design: species or system Membrane
[8] = target: T5, Muscarinic acetylcholine receptor M5 (Homo sapiens, UniProt P08912); experiment: Displacement of [3H]NMS from human recombinant muscarinic receptor M5 expressed in CHO-K9 cell membranes measured after 3 hrs by radioligand competition binding assay; design: species or system Membrane
T5 sequence (P08912 whole entry): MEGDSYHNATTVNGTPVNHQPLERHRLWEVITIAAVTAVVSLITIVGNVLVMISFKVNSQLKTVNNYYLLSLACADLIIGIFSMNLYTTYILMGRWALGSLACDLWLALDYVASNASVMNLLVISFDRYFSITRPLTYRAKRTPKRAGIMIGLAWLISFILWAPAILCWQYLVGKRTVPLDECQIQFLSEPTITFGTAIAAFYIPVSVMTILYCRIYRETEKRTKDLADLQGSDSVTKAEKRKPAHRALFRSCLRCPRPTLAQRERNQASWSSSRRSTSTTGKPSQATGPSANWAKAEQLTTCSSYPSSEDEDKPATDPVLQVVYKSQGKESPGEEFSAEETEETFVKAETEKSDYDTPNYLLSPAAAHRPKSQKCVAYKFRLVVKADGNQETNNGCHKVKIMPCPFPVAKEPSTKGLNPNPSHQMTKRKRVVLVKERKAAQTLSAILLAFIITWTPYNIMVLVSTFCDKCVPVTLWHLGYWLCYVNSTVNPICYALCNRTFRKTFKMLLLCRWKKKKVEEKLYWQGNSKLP

[9] = target: T4, Muscarinic acetylcholine receptor M2; experiment: Binding affinity to human muscarinic M2 receptor expressed in CHO-K9 cells assessed as unspecific binding at Kd incubated in dark at 22 degree C for 2 hrs in presence of atropine by FACSCalibur flow cytometric saturation binding study relative to control; assay type: cell-based

Compound	Ki [1]	Ki [2]	Ki [3]	Ki [4]	Kd ([5]; read-out: Kd)	Kd ([5]; read-out: pKd (converted))	Ki [6]	Ki [7]	Ki [8]	Kd ([9]; read-out: Kd)	Kd ([9]; read-out: pKd (converted))
CCN(CC)CCCCC1CCN(CC(=O)N2c3ccccc3NC(=O)c3ccccc32)CC1	0.316 nM	2 nM	–	–	–	–	–	–	–	–	–
Cc1scc2c1N(C(=O)CN1CCN(CCCCCCCCCCNC(=O)Cc3ccc4c(c3)C(C)(C)C3=C5C=C6C7=[N+](CCC6OC5CCN34)c3ccc(S(=O)(=O)[O-])cc3C7(C)C)CC1)c1ccccc1NC2=O (stereo not given)	–	–	0.0316 nM	0.0398 nM	–	–	–	–	–	–	–
NCCN1CCN(CCCCC2CCN(CC(=O)N3c4ccccc4NC(=O)c4ccccc43)CC2)CC1	–	–	–	0.562 nM	–	–	–	–	–	–	–
Cc1cc(/C=C/C=C/c2ccc(N(C)C)cc2)cc(C)[n+]1CCN1CCN(CCCCC2CCN(CC(=O)N3c4ccccc4NC(=O)c4ccccc43)CC2)CC1	–	–	–	–	1.4 nM	2.34 nM	–	–	–	–	–
O=C(CCCCCNC(=O)COc1ccc(/C=C/C2=[N+]3C(=Cc4ccc(-c5cccs5)n4[B-]3(F)F)C=C2)cc1)NCCNC(=O)CCc1cn(CCCCC2CCN(CC(=O)N3c4ccccc4NC(=O)c4ccccc43)CC2)cn1	–	–	1 nM	0.692 nM	4.5 nM	3.89 nM	37.2 nM	0.417 nM	10 nM	–	–
Cc1cc(/C=C/c2cc3c4c(c2)CCCN4CCC3)cc(C)[n+]1CCNC(=O)CCc1cn(CCCCC2CCN(CC(=O)N3c4ccccc4NC(=O)c4ccccc43)CC2)cn1	–	–	7.08 nM	1.35 nM	3.8 nM	2 nM	69.2 nM	2.63 nM	40.7 nM	–	–
Cc1cc(/C=C/c2cc3c4c(c2)CCCN4CCC3)cc(C)[n+]1CCN1CCN(CCCCC2CCN(CC(=O)N3c4ccccc4NC(=O)c4ccccc43)CC2)CC1	–	–	4.79 nM	0.955 nM	1.9 nM	0.646 nM	63.1 nM	2.69 nM	126 nM	–	–
Cc1cc(/C=C/C=C/c2ccc(N(C)C)cc2)cc(C)[n+]1CCNC(=O)CCc1cn(CCCCC2CCN(CC(=O)N3c4ccccc4NC(=O)c4ccccc43)CC2)cn1	–	–	4.9 nM	0.912 nM	2 nM	–	85.1 nM	4.27 nM	70.8 nM	–	–
CN(C)c1ccc2c(-c3ccc(C(=O)NCCN4CCN(CCCCC5CCN(CC(=O)N6c7ccccc7NC(=O)c7ccccc76)CC5)CC4)cc3C(=O)[O-])c3ccc(=[N+](C)C)cc-3oc2c1	–	–	2.57 nM	0.24 nM	–	–	81.3 nM	0.977 nM	178 nM	0.6 nM	1.38 nM
CN(C)c1ccc2c(-c3ccc(C(=O)NCCNC(=O)CCc4cn(CCCCC5CCN(CC(=O)N6c7ccccc7NC(=O)c7ccccc76)CC5)cn4)cc3C(=O)[O-])c3ccc(=[N+](C)C)cc-3oc2c1	–	–	6.17 nM	1.78 nM	2.4 nM	4.37 nM	129 nM	3.72 nM	275 nM	–	–
Cc1scc2c1N(C(=O)CN1CCN(CCCCCCCCCCNC(=O)c3ccc(-c4c5ccc(=N)c(S(=O)(=O)O)c-5oc5c(S(=O)(=O)O)c(N)ccc45)c(C(=O)O)c3)CC1)c1ccccc1NC2=O	–	–	0.501 nM	1.58 nM	–	–	–	–	–	–	–
